Measurements taken from PubChem BioAssay (NCI).
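Assay format: 96-well plates, 48-hour exposure. TGI denotes the concentration required for complete inhibition of growth.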

Legend:
Test in all cases: inhibition of tumour cell growth, NCI panel, 48 h
[1] = tested on: 786-0 renal
[2] = tested on: A498 renal
[3] = tested on: A549 NSCLC
[4] = tested on: BT-549 breast
[5] = tested on: HT29 colon
[6] = tested on: MALME-3M melanoma
[7] = tested on: MDA-MB-231 breast
[8] = tested on: OVCAR-5 ovarian
[9] = tested on: SF-268 CNS
[10] = tested on: SK-MEL-28 melanoma
[11] = tested on: SNB-19 CNS

`Cc1ccc([N+](=O)[O-])cc1S(=O)(=O)Nc1ccc(C2=NNC(c3ccccc3)C2)cc1` (stereo unspecified) gave a TGI [1] of 74.1 µM, a TGI [2] of 68.9 µM and a TGI [3] greater than 100 µM. For the same compound, the TGI [4] was 52 µM, the TGI [5] was greater than 100 µM and the TGI [6] was 46 µM. For the same compound, the TGI [7] was 77.5 µM, the TGI [8] was greater than 100 µM and the TGI [9] was greater than 100 µM. It also gave a TGI [10] greater than 100 µM and a TGI [11] greater than 100 µM.

With `Cc1cc(S(=O)(=O)N=C2N(Cc3ccccc3)CCN2Cc2ccccc2)c(S)cc1Cl` the TGI [1] was greater than 100 µM, the TGI [2] was greater than 100 µM and the TGI [3] was greater than 100 µM. The TGI [4] was greater than 100 µM, the TGI [5] was greater than 100 µM and the TGI [6] was greater than 100 µM. The TGI [7] was greater than 100 µM, the TGI [8] was greater than 100 µM and the TGI [9] was greater than 100 µM. For the same compound, the TGI [10] was greater than 100 µM and the TGI [11] was greater than 100 µM.

Compound `COC1=C(OC)C(=O)C(Cc2c(C)nc3sc(C)cn23)=C(C)C1=O` has a TGI [1] of 39.4 µM, a TGI [2] greater than 100 µM and a TGI [3] of 49.5 µM. It also gave a TGI [4] of 31.2 µM, a TGI [5] of 40.6 µM and a TGI [6] of 37.3 µM. For the same compound, the TGI [7] was 30.2 µM, the TGI [8] was 40.7 µM and the TGI [9] was 35.7 µM. It also gave a TGI [10] of 29.9 µM and a TGI [11] of 36.5 µM.

`O=Cc1ccc(OCc2cccc(COc3ccc(/C=N\Nc4ccc([N+](=O)[O-])cc4[N+](=O)[O-])cc3)n2)cc1` showed a TGI [1] greater than 100 µM, a TGI [2] greater than 100 µM and a TGI [3] greater than 100 µM. The TGI [4] was greater than 100 µM, the TGI [5] was greater than 100 µM and the TGI [6] was greater than 100 µM. The TGI [7] was greater than 100 µM, the TGI [8] was greater than 100 µM and the TGI [9] was greater than 100 µM. For the same compound, the TGI [10] was greater than 100 µM and the TGI [11] was greater than 100 µM.

For `CON(C)C(=O)CNC(=O)OCC1c2ccccc2-c2ccccc21`, the TGI [1] was greater than 100 µM, the TGI [2] was greater than 100 µM and the TGI [3] was greater than 100 µM. For the same compound, the TGI [4] was greater than 100 µM, the TGI [5] was greater than 100 µM and the TGI [6] was greater than 100 µM. It also gave a TGI [7] greater than 100 µM, a TGI [8] greater than 100 µM and a TGI [9] greater than 100 µM. It also gave a TGI [10] greater than 100 µM and a TGI [11] greater than 100 µM.

For `CSc1ncnc2c1ncn2C1CC(Oc2ccc(C)cc2)C(COc2ccc(C)cc2)O1` (stereo unspecified), the TGI [1] was greater than 100 µM, the TGI [2] was greater than 100 µM and the TGI [3] was greater than 100 µM. The TGI [4] was greater than 100 µM, the TGI [5] was greater than 100 µM and the TGI [6] was greater than 100 µM. It also gave a TGI [7] greater than 100 µM, a TGI [8] greater than 100 µM and a TGI [9] greater than 100 µM. It also gave a TGI [10] greater than 100 µM and a TGI [11] greater than 100 µM.

Work on `O=C1C(CN2CCCCC2)CCC1CN1CCCCC1` (stereo unspecified) yielded a TGI [1] of 41.7 µM, a TGI [2] of 29.2 µM and a TGI [3] greater than 100 µM. It also gave a TGI [4] of 34 µM, a TGI [5] of 40.4 µM and a TGI [6] of 49 µM. The TGI [7] was 42.3 µM, the TGI [8] was 47.8 µM and the TGI [9] was greater than 74.8 µM. For the same compound, the TGI [10] was 41.2 µM and the TGI [11] was greater than 100 µM.

`COc1cc(CNCc2cc(OC)c(OC)c(OC)c2)cc(OC)c1OC` showed a TGI [1] greater than 10 µM, a TGI [2] greater than 10 µM and a TGI [3] greater than 10 µM. It also gave a TGI [4] greater than 10 µM, a TGI [5] greater than 10 µM and a TGI [6] greater than 10 µM. For the same compound, the TGI [7] was greater than 10 µM, the TGI [8] was greater than 10 µM and the TGI [9] was greater than 10 µM. The TGI [10] was greater than 10 µM and the TGI [11] was greater than 10 µM.

In the case of `CCOCc1nc2c(OC)cc(-c3nc4ccc(N5CCN(C)CC5)cc4[nH]3)c(OC)c2[nH]1`, the TGI [1] is reported as greater than 100 µM, the TGI [2] is reported as greater than 100 µM and the TGI [3] is reported as greater than 100 µM. The TGI [4] was greater than 100 µM, the TGI [5] was 83 µM and the TGI [6] was 33.5 µM. For the same compound, the TGI [7] was 81.9 µM, the TGI [8] was greater than 100 µM and the TGI [9] was greater than 100 µM. For the same compound, the TGI [10] was 36.3 µM and the TGI [11] was greater than 100 µM.

`CCOC(=O)c1cc(C(O)P2(=O)N(CC(C)(C)C)[C@@H]3CCCC[C@H]3N2CC(C)(C)C)cn1C(=O)OC(C)(C)C` (stereo partly specified) showed a TGI [1] of 31 µM, a TGI [2] of 65.3 µM and a TGI [3] of 38.8 µM. The TGI [4] was 31.9 µM, the TGI [5] was 26.7 µM and the TGI [6] was 33.6 µM. The TGI [7] was 31.4 µM, the TGI [8] was 41.6 µM and the TGI [9] was 38.4 µM. It also gave a TGI [10] of 30.3 µM and a TGI [11] of 46.2 µM.

Work on `Cc1c(S(=O)(=O)/N=C(\NO)Nc2ccc(Cl)c(Cl)c2)sc2ccc(Cl)cc12` yielded a TGI [1] of 39.6 µM, a TGI [2] of 38.2 µM and a TGI [3] of 68.8 µM. The TGI [4] was 34 µM, the TGI [5] was 29.3 µM and the TGI [6] was 42.6 µM. For the same compound, the TGI [7] was 55.3 µM, the TGI [8] was 38.2 µM and the TGI [9] was 58.8 µM. It also gave a TGI [10] of 42.5 µM and a TGI [11] of 45.1 µM.

For `Cc1ccc(N=Nc2c(O)ccc3cc(S(=O)(=O)O)cc(S(=O)(=O)O)c23)cc1`, the TGI [1] was greater than 100 µM, the TGI [2] was greater than 100 µM and the TGI [3] was greater than 100 µM. The TGI [4] was greater than 100 µM, the TGI [6] was greater than 100 µM and the TGI [7] was greater than 100 µM. For the same compound, the TGI [8] was greater than 100 µM, the TGI [9] was greater than 100 µM and the TGI [10] was greater than 100 µM. For the same compound, the TGI [11] was greater than 100 µM.

Compound `COc1cccc(-c2ccc3c4c2O[C@H]2C(=O)CC[C@@]5(O)[C@@H](C3)N(CC3CC3)CC[C@]425)c1` has a TGI [1] of 32.1 µM, a TGI [2] of 34.1 µM and a TGI [3] of 35.5 µM. It also gave a TGI [4] of 35.1 µM, a TGI [5] of 24.6 µM and a TGI [6] of 36.4 µM. The TGI [7] was 30.3 µM, the TGI [8] was 35.7 µM and the TGI [9] was 40.3 µM. The TGI [10] was greater than 100 µM and the TGI [11] was 42.2 µM.

`COc1cc(Cn2c3c(c4cc(O)ccc42)Cc2ccccc2C3=O)cc(OC)c1` was tested, and the TGI [1] was greater than 100 µM, the TGI [2] was greater than 100 µM and the TGI [3] was greater than 100 µM. The TGI [4] was greater than 100 µM, the TGI [5] was greater than 100 µM and the TGI [6] was greater than 100 µM. For the same compound, the TGI [7] was greater than 100 µM, the TGI [8] was 56.2 µM and the TGI [9] was greater than 100 µM. It also gave a TGI [10] greater than 100 µM and a TGI [11] greater than 100 µM.

With `COc1cc(/C=C2/C[C@H]3[C@@H]4CC=C5C[C@@H](O)CC[C@]5(C)[C@H]4CC[C@]3(C)NC2=O)cc(OC)c1OC` the TGI [1] was 57.1 µM, the TGI [2] was 55 µM and the TGI [3] was greater than 100 µM. The TGI [4] was 63 µM, the TGI [5] was greater than 80.7 µM and the TGI [6] was 32.8 µM. It also gave a TGI [7] greater than 55.7 µM, a TGI [8] greater than 75.7 µM and a TGI [9] of 23.4 µM. For the same compound, the TGI [10] was greater than 100 µM and the TGI [11] was greater than 84.7 µM.

Compound `Cc1ccc(-c2c(C#N)c(-c3ccc(Cl)cc3)c(C#N)c(=O)n2NS(=O)(=O)c2ccc(C)cc2)cc1` has a TGI [1] greater than 100 µM, a TGI [2] of 86.3 µM and a TGI [3] of 82.3 µM. For the same compound, the TGI [4] was greater than 100 µM, the TGI [5] was greater than 100 µM and the TGI [6] was greater than 100 µM. The TGI [7] was greater than 100 µM, the TGI [8] was greater than 100 µM and the TGI [9] was greater than 100 µM. It also gave a TGI [10] greater than 100 µM and a TGI [11] greater than 100 µM.

`COc1ccc(C(=C(Cl)c2ccccc2)c2ccc(OC)cc2)cc1` gave a TGI [1] greater than 100 µM, a TGI [2] greater than 100 µM and a TGI [3] greater than 100 µM. For the same compound, the TGI [4] was greater than 100 µM, the TGI [5] was greater than 100 µM and the TGI [6] was greater than 100 µM. The TGI [7] was greater than 100 µM, the TGI [8] was greater than 100 µM and the TGI [9] was greater than 100 µM. It also gave a TGI [10] greater than 100 µM and a TGI [11] greater than 100 µM.
